# Test: Aqueous kinetic solubility from a solution of 10 mM DMSO in phosphate buffered saline (PBS) at pH 7.4
# Type: physicochemical
# Details: PBS pH 7.4, 25° C., target concentration 250 μM, 2.5% DMSO, UV quantification at 215 nm, read-out: Kinetic sol. PBS pH 7.4
# Description: Aqueous kinetic solubility of derivative compounds of the benzoic acid starting from a solution of 10 mM DMSO in phosphate buffered saline (PBS) at pH 7.4
# Aliquots of 30 μL of stock solution of the test compound in 10 mM DMSO were incubated in phosphate buffered saline (PBS) at pH 7.4 at 25° C. for 24 hours. After centrifugation, the compound dissolved in the supernatant was quantified by […].
# The target concentration was 250 μM with a final concentration of 2.5% DMSO. Aqueous kinetic solubility was determined by UV quantification at 215 nm. The kinetic solubility was then calculated by dividing the peak area of the supernatant by the peak area of the reference and multiplying by the reference concentration (μM) and the dilution factor (1.25).
row,SMILES,solubility kinetic at 24 h
1,"CN(C)S(=O)(=O)c1cc(C(=O)O)ccc1NCCCCCCCC(F)(F)F [Compound 1, 3-(dimethylsulfamoyl)-4-(8,8,8-trifluorooctylamino)benzoic acid]",>250 µM
2,CCCCCCNc1ccc(C(=O)O)cc1S(N)(=O)=O [Compound 2],238 µM
3,CCCCCCCCNc1ccc(C(=O)O)cc1S(N)(=O)=O [Compound 3],>250 µM
4,CCCCCCNc1ccc(C(=O)O)cc1S(=O)(=O)NC [Compound 4],247 µM
5,CCCCCCNc1ccc(C(=O)O)cc1S(=O)(=O)N(C)C [Compound 5],243 µM
6,CN(C)S(=O)(=O)c1cc(C(=O)O)ccc1NCCC(C)(C)C [Compound 6],>250 µM
7,CN(C)S(=O)(=O)c1cc(C(=O)O)ccc1NCCCC(F)(F)F [Compound 7],245 µM
8,CN(C)S(=O)(=O)c1cc(C(=O)O)ccc1NCCCCCC(F)(F)F [Compound 8],249 µM
9,COCCNc1ccc(C(=O)O)cc1S(=O)(=O)N(C)C [Compound 9],237 µM

# Next, values leading:
row,solubility kinetic at 24 h,SMILES
1,247 µM,COCCCCNc1ccc(C(=O)O)cc1S(=O)(=O)N(C)C [Compound 10]
2,>250 µM,COCCCCCCNc1ccc(C(=O)O)cc1S(=O)(=O)N(C)C [Compound 11]
3,223 µM,O=C(O)c1ccc(NCCCCCCCC(F)(F)F)c(S(=O)(=O)NC2CCCC2)c1 [Compound 12]
4,244 µM,O=C(O)c1ccc(NCCCCCCCC(F)(F)F)c(S(=O)(=O)N2CCOCC2)c1 [Compound 13]
5,244 µM,O=C(O)c1ccc(NCCCCCCCC(F)(F)F)c(S(=O)(=O)NC2CCOCC2)c1 [Compound 14]
6,241 µM,CN(C)S(=O)(=O)c1cc(C(=O)O)c(Cl)cc1NCCCCCCCC(F)(F)F [Compound 16]
7,242 µM,CNS(=O)(=O)c1cc(C(=O)O)ccc1NCCCCCCCC(F)(F)F [Compound 18]
8,188 µM,COc1cc(NCCCCCCCC(F)(F)F)c(S(=O)(=O)N(C)C)cc1C(=O)O [Compound 20]

# Same assay, conditions: aqueous buffer, PBS pH 7.4, 25° C., target concentration 250 μM, 2.5% DMSO, UV quantification at 215 nm, read-out: Kinetic sol. PBS pH 7.4
row,solubility kinetic at 24 h,SMILES
1,> 250 µM,CN(C)S(=O)(=O)c1cc(C(=O)O)ccc1N1CCN(CCCCC(F)(F)F)CC1 [Compound 15]
2,> 250 µM,C=CCCCCCNc1ccc(C(=O)O)cc1S(=O)(=O)N(C)C [Compound 17]
3,> 250 µM,NS(=O)(=O)c1cc(C(=O)O)c(O)cc1NCCCCCCCC(F)(F)F [Compound 19]
